Data on 59 sequences can be found in the supplement of paper PMC11208160.
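Also: IS621 recombinase and bridge RNA in Escherichia coli cells.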

A short description of the series: recombinant barcode read abundance after kanamycin selection (control-corrected) (log10(CPM+1)); higher = more efficient recombination; sequences stand for … in AGTGCAGAGAAAATCGGCCAGTTTTCTCTGCCTGCAGTCCGCATGCCGT…AGATTTATGCAGCGGACTGCCTTTCTCCCAAAGTGATAAACCGGACAGTATCATGGACCGGTTTTCCCGGTAATCCGTATTTGCAAGGTTGGTTTCACT; site = the 11-nt target. In outline: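 IS621 bridge RNA target-binding loops were paired with targets in a pooled library tested in E. coli. After co-electroporation with a donor plasmid, cells were plated in two replicates on chloramphenicol/ampicillin LB agar (control) and on chloramphenicol/ampicillin/kanamycin carrying 0.1 mM IPTG. Barcodes at recombinant junctions were counted as counts per million, averaged and control-corrected to give recombination efficiency. Values are log10(CPM+1).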
In the case of “GAGTGGCCTTGGGTTCTAACCTGTTGCCT (site GAGTGGCCTAT)”, the “recombinant barcode read abundance (log10)” value worked out at 0.182. With “GAGTGGCCTTGGGTTCTAACCTGTTGCGA (site GAGTGGCCTTC)” the figure was 2.02; with “GAGTGGCCTTGGGTTCTAACCTGTTGCGA (site TCCGTATCTCT)”, 0.0392. With “GAGTGGCCTTGGGTTCTAACCTGTTGCGT (site GAGTGGCCTAA)” the figure was 0.314; with “GAGTGGCCTTGGGTTCTAACCTGTTGCGT (site GAGTGGCCTAC)”, 2.4. Take “GAGTGGCCTTGGGTTCTAACCTGTTGCGT (site GAGTGGCCTAG)”: the “recombinant barcode read abundance (log10)” value turned out to be 0.227. With “GAGTGGCCTTGGGTTCTAACCTGTTGCGT (site GAGTGGCCTAT)” the figure was 1.32; with “GAGTTCCCTTGGGTTCTAACCTGTTGCCC (site ATTACTTCTAA)”, 0.0963; with “GAGTTCCCTTGGGTTCTAACCTGTTGCCC (site GAGTTCCCTGG)”, 1.54. Then “GAGTTTCCTTGGGTTCTAACCTGTTGCGT (site GAGTTACCTAC)”, with 0.142; and “GAGTTTCCTTGGGTTCTAACCTGTTGCGT (site GAGTTCCCTAC)”, with 0.278. Then “GAGTTTCCTTGGGTTCTAACCTGTTGCGT (site GAGTTGCCTAC)”, with 0.0725; and “GAGTTTCCTTGGGTTCTAACCTGTTGCGT (site GAGTTTCCTAC)”, with 0.791; and “GATACAGCTTGGGTTCTAACCTGTTGCCT (site GAAACAGCTAG)”, with 0.0665.

As to “GATACAGCTTGGGTTCTAACCTGTTGCCT (site GACACAGCTAG)”, the “recombinant barcode read abundance (log10)” value was found to be 0.444. Then “GATACAGCTTGGGTTCTAACCTGTTGCCT (site GAGACAGCTAG)”, with 0.155; and “GATACAGCTTGGGTTCTAACCTGTTGCCT (site GATACAGCTAG)”, with 1.16. With “GATACGACTTGGGTTCTAACCTGTTGCCT (site GATACGACTAG)” the figure was 1.14.

As for “GATACGACTTGGGTTCTAACCTGTTGCCT (site GATACGCCTAG)”, the “recombinant barcode read abundance (log10)” value is 0.748. With “GATACGACTTGGGTTCTAACCTGTTGCCT (site GATACGGCTAG)” the figure was 0.0662.

“GATACGACTTGGGTTCTAACCTGTTGCCT (site GATACGTCTAG)”: the “recombinant barcode read abundance (log10)” value came to 0.00976. Then “GATACTACTTGGGTTCTAACCTGTTGCAG (site GATACTACTCT)”, with 0.17. Turning to “GATACTACTTGGGTTCTAACCTGTTGCAG (site GATGCTACTCT)”, the “recombinant barcode read abundance (log10)” value is 0.11. Then “GATAGACCTTGGGTTCTAACCTGTTGCCT (site CATAGACCTAG)”, with 0.126; and “GATAGACCTTGGGTTCTAACCTGTTGCCT (site GATAGACCTAG)”, with 1.57; and “GATAGCTCTTGGGTTCTAACCTGTTGCCT (site AATAGCTCTAG)”, with 0.332. With “GATAGCTCTTGGGTTCTAACCTGTTGCCT (site CATAGCTCTAG)” the figure was 0.0838.

Turning to “GATAGCTCTTGGGTTCTAACCTGTTGCCT (site GATAGCTCTAG)”, the “recombinant barcode read abundance (log10)” value was determined as 0.998.

Take “GATAGCTCTTGGGTTCTAACCTGTTGCCT (site TATAGCTCTAG)”: the “recombinant barcode read abundance (log10)” value was found to be 0.509. For the sequence “GATAGGGCTTGGGTTCTAACCTGTTGCCT (site GATAGGGCTAG)”, the “recombinant barcode read abundance (log10)” value is 1.09. Then “GATAGGGCTTGGGTTCTAACCTGTTGCCT (site TTATACACTGA)”, with 0.135. With “GATCAGCCTTGGGTTCTAACCTGTTGCCT (site GATCAGCCTAG)” the figure was 0.445; with “GATCAGCCTTGGGTTCTAACCTGTTGCCT (site GATCTGCCTAG)”, 0.063; with “GATCCTACTTGGGTTCTAACCTGTTGCCA (site GATCCTACTTG)”, 0.315. In the case of “GATCCTACTTGGGTTCTAACCTGTTGCCA (site GATGCTACTTG)”, the “recombinant barcode read abundance (log10)” value was found to be 0.0449. Then “GATCGAACTTGGGTTCTAACCTGTTGCCT (site AATCGAACTAG)”, with 0.15; and “GATCGAACTTGGGTTCTAACCTGTTGCCT (site GATCGAACTAG)”, with 0.204. Regarding “GATCGAGCTTGGGTTCTAACCTGTTGCAG (site GATCGAGCTCT)”, the “recombinant barcode read abundance (log10)” value is 1.42. Then “GATCGAGCTTGGGTTCTAACCTGTTGCAG (site TGGACGACTAA)”, with 0.178; and “GATCGAGCTTGGGTTCTAACCTGTTGCCT (site GATCGAGCTAG)”, with 1.12. On to “GATCGAGCTTGGGTTCTAACCTGTTGCCT (site GATCGCGCTAG)”, for which the “recombinant barcode read abundance (log10)” value is 0. In the case of “GATCGCGCTTGGGTTCTAACCTGTTGCCT (site GATCGAGCTAG)”, the “recombinant barcode read abundance (log10)” value amounted to 0.133. Then “GATCGCGCTTGGGTTCTAACCTGTTGCCT (site GATCGCGCTAG)”, with 0.231; and “GATCTAGCTTGGGTTCTAACCTGTTGCAT (site CATATAGCTAT)”, with 0.0793; and “GATCTAGCTTGGGTTCTAACCTGTTGCAT (site GATCTAGCTAT)”, with 0.574. Regarding “GATGAGTCTTGGGTTCTAACCTGTTGCTT (site GATGAGTCTAA)”, the “recombinant barcode read abundance (log10)” value stood at 1.8.

With “GATGAGTCTTGGGTTCTAACCTGTTGCTT (site GATGAGTCTAG)”, the “recombinant barcode read abundance (log10)” value turned out to be 1.34. With “GATGATACTTGGGTTCTAACCTGTTGCGT (site GATGATACTAC)”, the “recombinant barcode read abundance (log10)” value was 2.51. With “GATGATACTTGGGTTCTAACCTGTTGCGT (site GTTTATACTAC)” the figure was 0.0738; with “GATGCCACTTGGGTTCTAACCTGTTGCCT (site GATCCCACTAG)”, 0.182.

Consider “GATGCCACTTGGGTTCTAACCTGTTGCCT (site GATGCCACTAG)”, for which the “recombinant barcode read abundance (log10)” value came to 1.53.

With “GATGGTACTTGGGTTCTAACCTGTTGCAT (site ACGCACTCTCG)”, the “recombinant barcode read abundance (log10)” value was determined as 0.0471. With “GATGGTACTTGGGTTCTAACCTGTTGCAT (site GATGGTACTAT)” the figure was 1.46; with “GATGTATCTTGGGTTCTAACCTGTTGCCT (site GAGGTAGCTAG)”, 0.0384. Then “GATGTATCTTGGGTTCTAACCTGTTGCCT (site GATGTATCTAG)”, with 1.09. With “GATTATTCTTGGGTTCTAACCTGTTGCCT (site GAATATTCTAG)” the figure was 0.0621. Take “GATTATTCTTGGGTTCTAACCTGTTGCCT (site GACTATTCTAG)”: the “recombinant barcode read abundance (log10)” value was determined as 0.0521. As for “GATTATTCTTGGGTTCTAACCTGTTGCCT (site GAGTATTCTAG)”, the “recombinant barcode read abundance (log10)” value is 0.138.

Regarding “GATTATTCTTGGGTTCTAACCTGTTGCCT (site GATTATTCTAG)”, the “recombinant barcode read abundance (log10)” value is 0.
